Reference: patent US6737383B1, “Herbicidal oxadiazolidines” (priority 1999, dated 2004)

What was measured:
crabgrass = assay: Test B pre/postemergence crabgrass; assay type: in vivo, Digitaria sanguinalis
How it was run: (§1)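 Response is a visual 0-to-10 score relative to untreated plants, where 0 means no effect and 10 means complete control, taken twelve to sixteen days after application. Treatments went onto soil at planting and onto foliage of 1- to 4-leaf plants, using a surfactant-containing non-phytotoxic solvent.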

wild oat [1] = assay: Test B pre/postemergence wild oat; assay type: in vivo, Avena fatua; settings: for Plant response rating, Wild oats: Rate 250 g/ha
How it was run: as §1

green foxtail = assay: Test E green foxtail; assay type: in vivo, Setaria viridis; settings: Preemergence
winter wheat [2] = assay: Test E winter wheat; assay type: in vivo, Triticum aestivum; settings: Postemergence
How it was run: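 Plants were grown under normal greenhouse practice; for postemergence, in sandy loam soil mixed 60:40 with potting mix, treated at the 1- to 4-leaf stage. The compound was in a non-phytotoxic solvent carrying a surfactant. After roughly 21 to 28 days plants were scored visually against untreated plants.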

wild oat [3] = assay: Test E wild oat; assay type: in vivo, Avena fatua; settings: Preemergence; Rate 500 g/ha; 0 to 100 scale where 0 is no effect and 100 is complete control
winter barley = assay: Test E winter barley; assay type: in vivo, Hordeum vulgare; settings: Preemergence
blackgrass = assay: Test E blackgrass; assay type: in vivo, Alopecurus myosuroides; settings: Preemergence
Italian ryegrass = assay: Test E Italian ryegrass; assay type: in vivo, Lolium multiflorum; settings: Preemergence
soybean = assay: Test B pre/postemergence soybean; assay type: in vivo, Glycine max
How it was run: as §1

wheat = assay: Test B pre/postemergence wheat; assay type: in vivo, Triticum aestivum; settings: for Plant response rating, Wheat: Rate 250 g/ha
How it was run: as §1

smallflower flatsedge = assay: Test B flood test smallflower flatsedge; assay type: in vivo, Cyperus difformis
How it was run: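 Each value is a visual injury score relative to controls, with 10 meaning complete control and 0 no effect. Evaluation took place twelve to sixteen days after the 2-leaf-stage plants were treated and kept in the greenhouse.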

winter wheat [4] = assay: Test E winter wheat; assay type: in vivo, Triticum aestivum; settings: Preemergence
[5] = Postemergence, Rate 125 g/ha, scale of 0 to 10 where 0 is no effect and 10 is complete control
[6] = Preemergence, Rate 62 g/ha, scale 0 to 10 (0 no effect, 10 complete control)
[7] = Preemergence, Rate 125 g/ha, scale 0 to 10 (0 no effect, 10 complete control)
[8] = Preemergence, Rate 250 g/ha, scale of 0 to 10 where 0 is no effect and 10 is complete control
[9] = Preemergence, Rate 500 g/ha, scale 0 to 10 (0 no effect, 10 complete control)
[10] = Rate 62 g/ha, Postemergence, scale of 0 to 10 where 0 is no effect and 10 is complete control
[11] = Rate 500 g/ha, Postemergence, scale 0 to 10, 0 no effect, 10 complete control
[12] = Preemergence, Rate 125 g/ha, 0 is no effect, 10 is complete control
[13] = Preemergence, scale of 0 to 10 where 0 is no effect and 10 is complete control
[14] = Postemergence, scale 0 to 10, 0 is no effect, 10 is complete control
[15] = Rate 500 g/ha, 0 to 100 scale where 0 is no effect and 100 is complete control

CC(C)N(C(=O)n1oc(=O)n(C(C)(C)C)c1=O)c1ccc(Cl)cc1 [Compound 118]
1: Crabgrass plant response rating (crabgrass; [10]) | Wild oats plant response rating (0 to 10 scale) (wild oat [1]; [12]) | Soybean plant response rating (soybean; [5]) | Soybean plant response rating (soybean; [10])
70: Plant response rating, Wheat (winter) (winter wheat [2]; Rate 500 g/ha, 0 to 100 scale, 0 no effect, 100 complete control) | Plant response rating, Wild oat (wild oat [3]) | Plant response rating, Wheat (winter) (winter wheat [4]; [15])
9: Plant response rating, Crabgrass (crabgrass; [7]) | Crabgrass plant response rating (crabgrass; [11])
10: Plant response rating, Crabgrass (crabgrass; [8]) | Crabgrass plant response rating (crabgrass; [9])
6: Plant response rating, Wild oats (wild oat [1]; [13]) | Wild oats plant response rating (wild oat [1]; [9])
60: Plant response rating, I. Ryegrass (Italian ryegrass; Rate 250 g/ha, 0 to 100 scale) | Plant response rating, I. Ryegrass (Italian ryegrass; [15])
0: Wild oats plant response rating (wild oat [1]; [5]) | Wild oats plant response rating (wild oat [1]; [6]) | Wild oats plant response rating (wild oat [1]; [10]) | Plant response rating, Wild oats (wild oat [1]; [14]) | Soybean plant response rating (soybean; [6]) | Plant response rating, Soybean (soybean; [7]) | Plant response rating, Soybean (soybean; [8]) | Soybean plant response rating (soybean; [9]) | Wheat plant response rating (wheat; [5]) | Wheat plant response rating (wheat; [6]) | Wheat plant response rating (0 to 10 scale) (wheat; [12]) | Plant response rating, Wheat (wheat; [13]) | Wheat plant response rating (wheat; [9]) | Wheat plant response rating (wheat; [10]) | Plant response rating, Wheat (wheat; [14]) | S. Flatsedge plant response rating (smallflower flatsedge; Pre-emergence, Rate 1000 g/ha, scale 0 to 10 (0 no effect, 10 complete control)) | S. Flatsedge plant response rating (smallflower flatsedge; Rate 250 g/ha, headed Pre-emergence (flood test species), scale 0 to 10 (0 no effect, 10 complete control)) | Plant response rating, S. Flatsedge (smallflower flatsedge; Rate 500 g/ha, headed Pre-emergence (flood test species), scale 0 to 10 (0 no effect, 10 complete control)) | S. Flatsedge plant response rating (smallflower flatsedge; Rate 2000 g/ha, Pre-emergence (as headed), scale 0 to 10)
2: Wild oats plant response rating (wild oat [1]; [11]) | Plant response rating, Soybean (soybean; Rate 250 g/ha, Postemergence, scale 0 to 10, 0 is no effect, 10 is complete control) | Soybean plant response rating (soybean; [11]) | Wheat plant response rating (wheat; [11])
100: Plant response rating, Blackgrass (blackgrass; [15])
80: Plant response rating, Blackgrass (blackgrass; Rate 250 g/ha, 0 to 100 scale)
50: Plant response rating, Barley (winter) (winter barley; [15]) | Plant response rating, Wheat (winter) (winter wheat [4]; Rate 250 g/ha, 0 to 100 scale)
65: Plant response rating, Green foxtail (green foxtail; [15]) | Plant response rating, Wheat (winter) (winter wheat [2]; Rate 250 g/ha, 0 to 100 scale (0 no effect, 100 complete control)) | Plant response rating, Barley (winter) (winter barley; Rate 250 g/ha, 0 to 100 scale)
7: Crabgrass plant response rating (crabgrass; [5]) | Crabgrass plant response rating (crabgrass; Postemergence, Rate 250 g/ha, scale 0 to 10, 0 no effect, 10 complete control) | Crabgrass plant response rating (crabgrass; [6])
55: Plant response rating, Green foxtail (green foxtail; Rate 250 g/ha, 0 to 100 scale)
